SMILES strings stand for the structures.

The nature of this series: Within-participant escalating dose trial Part B: safety and tolerability. In kind it is in vivo, human. To be noted: titrated dosing schedule, per day.

On to `CC(C)(C)NC(=O)CN1CCC(CNC(=O)c2cc(F)cc(Cl)c2)CC1.Cl` [compound of formula (II), N-((1-(2-(tert-butylamino)-2-oxoethyl)piperidin-4-yl)methyl)-3-chloro-5-fluorobenzamide hydrochloride], for which the “dose levels well-tolerated with titration” value was “up to 120 mg”.

Source of the values: patent publication US20250295646A1, “METHODS OF USE OF T-TYPE CALCIUM CHANNEL MODULATORS” (Praxis Precision Medicines, Inc., priority 2022, published 2025).
